Columns and labels:
[1] = In vivo pharmacokinetics in mouse; settings: plasma
[2] = In vivo pharmacokinetics in guinea pig; settings: plasma
[3] = Aqueous solubility in acidified water; assay type: physicochemical; settings: aqueous buffer; in acidified water pH~4
[4] = CellTiter-Glo Luminescent Cell Viability Assay (cytotoxicity); assay type: cell-based; settings: African green monkey; Vero cells, 3-5 days in culture
Description: Cytotoxicity: To determine the cytotoxicity of the compounds in Vero cells, the CellTiter-Glo Luminescent Cell Viability Assay (Promega) was used. The compounds were tested at 6-8 concentrations in three replicates. Control conditions include vehicle-only treated cells to set 100% surviving cells, DMSO-killed cells as a cell death-inducing control, and no cells for 0% surviving cells. Cytotoxicity is measured after 3-5 days in culture by the change/decrease in relative light units (RLUs) in each sample which reflects the amount of ATP present (an indicator of metabolically active cells).
The 50% cellular cytotoxicity (CC50) value is calculated based on the RLUs of the compound-treated samples using vehicle-only control as 100% survival and no cells as 0% survival.

[5] = tested on: dengue virus (DENV serotype 2, strain New Guinea C); assay: microbe, parasite or virus in culture; assay type: cell-based; settings: DENV2, 120 h, virus yield reduction in Vero cells, 5 days
[6] = tested on: Venezuelan Equine Encephalitis Virus (VEEV TC-83 stain); assay: microbe, parasite or virus in culture; assay type: cell-based; settings: Vero, 72 h, read-out: IC50 Venezuelan Equine Encephalitis TC-83 (VEEV)
[7] = Ames (Cerep); settings: with or without S9 activation
Description: (§1) Assays for drug likeness (solubility, microsomal stability, plasma protein binding, A-B efflux, cytochrome CYP450 3A4, hERG binding, and Ames) were carried out by Cerep (Washington USA, and France) using standard protocols for in vitro testing. Assay protocols are provided online at http://www.cerep.fecerep/users/pages/catalog/profiles/catalog.asp and Cerep standard procedures and concentrations were used for all assays.

[8] = target: T1, CYP3A4 (Homo sapiens, UniProt P08684); assay: CYP450 3A4 inhibition (Cerep); assay type: in vitro ADME
T1 construct: Cerep
Description: as §1

[9] = Human plasma protein binding (Cerep); assay type: in vitro ADME
Description: as §1

[10] = Human microsomal stability (Cerep); assay type: in vitro ADME; settings: human microsomes; read-out: Human microsomal stability: t½
Description: as §1

[11] = A-B Efflux (Caco2) (Cerep); assay type: in vitro ADME; settings: human, Caco-2
Description: as §1

[12] = Aqueous solubility in gastric and intestinal fluids (Cerep); assay type: physicochemical
Description: as §1

[13] = In vivo pharmacokinetics and oral bioavailability in rat; design: species or system male Sprague-Dawley rats; settings: male, Sprague-Dawley, plasma
Description: In vivo pharmacokinetic parameters and oral bioavailability for UV-0060 was determined by Eurofins (Cerep Panlabs, Taiwan). A pharmacokinetic study following oral and intravenous administrations was performed using male Sprague-Dawley rats. Test article was formulated in 2% DMSO/0.9% NaCl and administered orally (PO) at 10 mg/kg and intravenously (IV) at 5 mg/kg to groups of 3 rats. The dosing volume was 10 mL/kg for PO and 5 mL/kg for IV. Rats weighing 220±20 g were used. Blood samples were harvested at 3, 10, 30, 60, 120, 240, 360, 720 and 1440 minutes after intravenous injection and at 10, 30, 60, 120, 240, 360, 720 and 1440 minutes after oral administration. Blood was collected in tubes coated with lithium heparin, mixed gently, then kept on ice and centrifuged at 2,500×g for 15 minutes at 4° C., within 1 hour of collection. The plasma was harvested and kept frozen at −80° C. until further processing. A plasma calibration curve from 3-10000 ng/mL was generated using oxybutynin as internal standard. Aliquots of drug-free plasma were spiked with the test compound at the specified concentration levels. Plasma samples were processed using acetonitrile precipitation and analyzed by HPLC/MS/MS. The spiked plasma samples were processed together with the unknown plasma samples using the same procedure. HPLC/MS/MS analysis was carried out with electrospray ionization in positive ion mode with multiple reaction monitoring. HPLC column was Agilent Poroshell 120 EC-C18 column 2.7 μm (3.0×50 mm, 23° C.) with an acetonitrile/water/formic acid mobile phase gradient. Standards data were fitted linearly with a 1/x2 weighting.

[14] = Mouse, single dose, tested IV, oral routes
[15] = Guinea pig, single dose, tested IV, SQ, IM routes

T1 sequence (P08684 whole entry): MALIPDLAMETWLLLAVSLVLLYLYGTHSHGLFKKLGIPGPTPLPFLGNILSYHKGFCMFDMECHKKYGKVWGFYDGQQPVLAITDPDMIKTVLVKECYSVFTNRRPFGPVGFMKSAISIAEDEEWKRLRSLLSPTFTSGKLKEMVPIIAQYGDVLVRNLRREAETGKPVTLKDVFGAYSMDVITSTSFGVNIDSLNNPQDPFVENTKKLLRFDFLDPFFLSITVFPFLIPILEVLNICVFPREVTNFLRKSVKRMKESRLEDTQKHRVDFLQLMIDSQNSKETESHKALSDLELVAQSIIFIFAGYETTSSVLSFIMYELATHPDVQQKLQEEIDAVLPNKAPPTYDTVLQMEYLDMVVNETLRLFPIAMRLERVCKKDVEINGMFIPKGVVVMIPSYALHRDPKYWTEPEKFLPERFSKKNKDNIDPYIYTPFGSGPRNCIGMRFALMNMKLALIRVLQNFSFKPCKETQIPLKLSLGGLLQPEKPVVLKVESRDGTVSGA

Compound [N-]=[N+]=Nc1ccc(NCCCCCCN2C[C@H](O)[C@@H](O)[C@H](O)[C@H]2CO)c([N+](=O)[O-])c1 [UV-5] has a half-life ([1]; mouse, Mouse, single dose, tested IV, oral routes, read-out: T1/2) of 4.09 to 8.96 h, a half-life ([1]; mouse, mice, read-out: Plasma t½) of ~4 h and a bioavailability ([1]; mouse, mice, oral) of 80%. It also gave a Cmax [1, 14] of 14400 ng/mL, a Tmax [1, 14] of 1 h and a clearance ([2]; guinea pig) of 233 mL/min/kg. For the same compound, the half-life ([2]; guinea pig, Guinea pig, single dose, tested IV, SQ, IM routes, read-out: T½) was 1.62 to 3.99 h, the half-life ([2]; guinea pig, guinea pig, read-out: Plasma t½) was 1.62 h and the Vd ([2]; guinea pig, read-out: Vss) was 16.9 L/kg. It also gave a bioavailability ([2]; other: IM, Guinea pig, IM, SC) of 187 to 198%, a Cmax [2, 15] of 2320 to 3790 ng/mL and a Tmax [2, 15] of 0.75 to 1.13 h. For the same compound, the solubility [3] was > 112 mg/mL.

For OC[C@@H]1[C@@H](O)[C@H](O)[C@@H](O)CN1CCCCCCCCc1ccco1 [UV-30, (2R,3R,4R,5S)-1-(8-(furan-2-yl)octyl)-2-(hydroxymethyl)piperidine-3,4,5-triol], the CC50 [4] was ≥ 125 µM, the IC50 [5] was 7 µM and the IC50 [6] was 14 µM.

With O=[N+]([O-])c1cc(-n2nccn2)ccc1NCCCCCCN1C[C@H](O)[C@@H](O)[C@H](O)[C@H]1CO [UV-0060] the Ames [7] was “Ames: negative with or without S9”, the CC50 [4] was 245 µM and the inhibition at 10 µM [8] was 0.2%. For the same compound, the fraction unbound at 10 microM [9] was 0.12, the IC50 [5] was 5 µM and the half-life [10] was > 1 h. For the same compound, the Papp A→B [11] was ~0.3 ×10⁻⁶ cm/s, the solubility ([12]; gastric fluid, simulated gastric fluid, read-out: Aqueous solubility in gastric fluid) was > 200 µM and the solubility ([12]; intestinal fluid, fassgf or other biorelevant, read-out: Aqueous solubility in intestinal fluid) was > 200 µM. It also gave an IC50 [6] of 94.1 µM, a bioavailability ([13]; PO 10 mg/kg vs IV 5 mg/kg) of 6% and a clearance ([13]; single dose, IV 5 mg/kg) of 72.9 mL/min/kg. The half-life ([13]; single dose, IV 5 mg/kg, read-out: T1/2 (IV)) was 2.8 h, the Tmax ([13]; single dose, PO 10 mg/kg) was 2.2 h and the half-life ([13]; single dose, PO 10 mg/kg, read-out: T1/2 (PO)) was 2.2 h.
